From article PMC7995547, “ω‐Imidazolyl‐alkyl derivatives as new preclinical drug candidates for treating non‐alcoholic steatohepatitis” (Physiological Reports, 2021)

Columns and labels:
Assay type in all cases: in vivo, Wistar rats
[1] = test system: HFD‐induced NASH rat model (liver); assay: Liver histopathology, semi‐quantitative evaluation, NASH rat model; parameters: key to Steatosis score / Balooning score: 0, none; 1, ≤25%; 2, 26–50%; 3, ≥51–75% of liver parenchyma
Description: (§1) Studies were done using Wistar rats of female sex by the Institute of Pharmacology and Biochemistry at Minsk. The animals were 80–90 days old and weighed 180–200 g. They had free access to a liquid Lieber‐DeCarli (LDC) diet (Lieber et al., 2004) and were housed under standard conditions meaning a 12‐h light/dark cycle at 22 ± 2°C and 55 ± 5% humidity.
(§2) Group 1 was designated as the first control group; it was fed a normal standard solid diet. Group 2, as the second control group, was fed a standard amount of fat as a part of the liquid “physiological,” non‐high fat LDC diet. All other groups received the liquid ‘disease‐causing’ LDC diet (Table 2), including a high content of unsaturated fatty acids.
(§3) Both LDC diets were in a liquid form as produced by ssniff‐Spezialdiäten GmbH, Soest (Germany). The feed was provided over the entire experimental period of 16 weeks; however, the corresponding experimental substances were only administered in the last four weeks (Figure 3).
(§4) The experimental substances I‐ol, I‐an, and UDCA were dissolved in a 0.8% aqueous HPMC gel to obtain the following concentrations: (1) I‐ol at 0.4, 4, and 40 mg/kg body weight (b.w.), (2) I‐an at 0.4, 4, and 40 mg/kg b.w., and (3) UDCA at 40 mg/kg b.w. The Group‐2 and −3 rats received only HPMC as placebo. Each test encompassed 6–8 rats that were put up in a separate cage. The rats were fed ad libitum, and their intake per cage was controlled daily. In order to ensure an exact daily reproducible dosage, the experimental substances or only HPMC was administered intragastrically via oral gavage. Basically, the drug therapy of a chronic disease is the more efficient the higher the adherence of the affected patients. This is generally higher with peroral administration than with any other form of application. At the end of the experiment, the animals were sacrificed under fasting conditions, by aorta dissection and exsanguination, after anesthetizing with an intraperitoneal injection of 5% pentobarbital solution.
Pieces of liver tissue measuring 1 × 2 × 0.5 mm were chosen randomly and fixed for a week in the mixture of 1% formaldehyde and 1% paraformaldehyde in Sorensen's phosphate buffer (pH 7.4) (Morphisto GmbH, Frankfurt/Main). After this the pieces were kept in 2.5% glutaraldehyde in same buffer, rinsed and then post‐fixed in 1% solution of osmium tetroxide on the Sorensen's phosphate buffer (pH 7.4). After fixation, the liver samples were dehydrated and embedded in the pre‐polymerized mixture of methyl methacrylate and butyl methacrylate (1:4, v/v) containing 2,4‐dichlorbenzoyl peroxide as a catalyst.
[…] A semi‐quantitative evaluation of the sections was performed according to the procedure described by Koppe et al. (Koppe et al., 2004).

[2] = test system: HFD‐induced NASH rat model (liver); assay: Oxidative stress (ROS status) in the liver, HFD-induced NASH rat model; conditions: liver
Description: as §1
The rats were divided into 10 groups based on the diets and experimental substances administered (Figure 2).
as §2, §3, §4
The formation of ROS in the rat liver was measured using NADPH‐induced chemiluminescence as described by Müller‐Peddinghaus et al. (Muller‐Peddinghaus, 1987). Luminol and lucigenin were used for detecting the superoxide radical anion (SRA) and hydrogen peroxide. Liver pieces were homogenized in 0.1 M sodium phosphate buffer, pH 7.4; the homogenates were centrifuged at 9,000 × g at 0°C; and aliquots were used for subsequent measurements. Reduced glutathione (GSH) was estimated via a modified Ellman's method (Ellman, 1959), in which 0.2 mL of the liver homogenate supernatant was added to 1.6 mL of an EDTA/sodium phosphoric acid solution and the absorbance noted at 412 nm against blank values. GSH solution produced immediately before application served as the standard. The end products of the lipid peroxidation reaction were equivalent to the thiobarbituric acid‐reacting substances (TBARS), and their concentration was measured according to the method described by Buege et al. (Buege & Aust, 1978). Enzymatic activities of microsomal glutathione reductase (GR) and cytosolic glutathione peroxidase (GPx) were measured according to the methodology of Buko et al. (Buko et al., 2002). Catalase activity was determined according to the spectroscopic methodology described by Beers et al. (Beers & Sizer, 1952) using hydrogen peroxide as the substrate.

[3] = test system: HFD‐induced NASH rat model (liver); assay: Area of connective tissue in the liver (Mallory‐Azan staining), NASH rat model; conditions: compound overall
Description: as §1, §2, §3, §4
Liver tissue sections were subject to the Mallory‐Azan (Heidenhain Azan) staining method for visualizing the connective tissues. This method was a modification of the original Mallory staining protocol, wherein azocarmin with a mixture of aniline blue and orange G was used. In this method, the collagen tissue and basophilic granules turn blue, the muscle tissue and acidophilic granules turn orange to red, and the cell nuclei and cytoplasm turn red. Elastic fibers remain unstained; however, they might turn yellow or pink. The proportion of positively stained liver tissue to the total area of the histological slide was determined quantitatively.

[4] = test system: HFD‐induced NASH rat model (liver and serum); assay: End products of fat metabolism (liver and serum lipids), NASH rat model; conditions: UDCA 40 mg/kg b.w.
Description: as §1, §2, §3, §4
(§5) The activities of the liver enzymes aspartate aminotransferase (AST), alanine aminotransferase (ALT), alkaline phosphatase (AP), and γ‐glutamyl transferase (γ‐GT) as well as bilirubin and triglyceride levels in the serum were determined as described by the instructions of BIO‐LA‐tests kit (Erba Lachema, Brno, Czech Republic).
Extraction of lipids was performed using a solvent composed of chloroform and methanol (2:1 v/v). Thin‐layer chromatography (TLC) was used to separate off neutral lipids and phospholipids. Silicagel G 60 plates (0.25 mm thick) were used. The lipids were separated by ascending chromatography in a system composed of hexane:diethylic ether:glacial acetic acid (73:25:2; v/v/v). They were visualized by iodine vapor and the spots corresponding to triglycerides and cholesterol were scraped off and eluted with methanol for spectrophotometric evaluation. Triglyceride and cholesterol levels were determined using the BIO‐LA‐test kit (Erba Lachema, Brno, Czech Republic). Phospholipid concentration was determined by measuring the levels of phosphomolybdate using an inorganic phosphate reagent containing molybdate (Findlay & Evans, 1987). VLDL level was determined by using the manganese precipitation method (Burstein & Scholnick, 1973) after partial modification (Hirano et al., 2003).

[5] = test system: HFD‐induced NASH rat model (serum); assay: Adipocytokines and glucose metabolism in serum, NASH rat model
Description: as §1, §2, §3, §4
The concentrations of adiponectin and TNFα were measured using ELISA kits sold by BioCat GmbH (Heidelberg, Germany), whereas the one for determining leptin level was procured from BioVendor Laboratory Medicine Inc. (Brno, Czech Republic). Insulin concentration was determined using the radioimmunoassay kit RIO‐insulin‐PG‐J125 (IBOCH, Minsk, Belarus). Serum glucose level was determined based on the “Accu‐Check Active blood glucose” monitoring method developed by Roche‐Diagnostics.

[6] = test system: HFD‐induced NASH rat model (serum); assay: Liver enzyme activities and bilirubin in serum, NASH rat model
Description: as §1, §2, §3, §4, §5

[7] = 40.0 mg/kg b.w. + HFD, H.E.‐stained liver slices
[8] = average over doses (I‐ol, I‐an), UDCA 40 mg/kg b.w.
[9] = average over doses (I‐ol, I‐an)
[10] = serum, average over doses (I‐ol, I‐an), UDCA 40 mg/kg b.w.
[11] = serum, number: highest concentration (40 mg/kg b.w.), words: compound overall

C[C@H](CCC(=O)O)[C@H]1CC[C@H]2[C@@H]3[C@@H](O)C[C@@H]4C[C@H](O)CC[C@]4(C)[C@H]3CC[C@]12C [UDCA, ursodeoxycholic acid, reference compound]
Balooning score [1, 7]: 0
Inflammation score [1, 7]: 1 (1, <5 signs of inflammation)
Steatosis score [1, 7]: 0–1
Effect on liver histology (in words) ([1]; animals with NASH (HFD)): improved liver histology
Increase in GR activity compared to disease group ([2]; I‐ol, I‐an groups overall, UDCA 40 mg/kg b.w.): 24%
Decrease in SRA level compared to disease group ([2]; average over 0.4, 4, 40 mg/kg b.w. (I‐ol, I‐an), UDCA 40 mg/kg b.w., oral gavage daily, last 4 of 16 weeks HFD): 30%
Decrease in TBARS level compared to disease group [2, 8]: 27%
Reduction of the effect of HFD on the SRA level [2, 8]: 84%
Reduction of the effect of HFD on the TBARS level [2, 8]: 63%
Effect on GSH level (in words) ([2]; compound overall): overall ineffective
Decrease in hydrogen peroxide level compared to disease group ([2]; highest concentration (40 mg/kg b.w.)): no significant effect
Effect of HFD nullified, GR activity increased by (on an average) ([2]; relative to the effect of HFD): 99%
Effect on area of connective tissue in the liver (in words) [3]: no therapeutic effect
Decrease in liver triglyceride levels compared to disease group [4, 9]: 17%
Reduction of the effect of HFD on liver triglyceride levels [4, 9]: 39%
Decrease in liver phospholipid levels compared to disease group ([4]; average over doses): no therapeutic effect
Decrease in serum LDL cholesterol ([4]; average over doses): non‐significant trend toward lowering the serum LDL level
Decrease in serum triglyceride levels compared to disease group ([4]; average over doses): no therapeutic effect
Decrease in serum glucose level ([5]; 40 mg/kg b.w.): 26%
Reversal of the effect of HFD on serum glucose level ([5]; 40 mg/kg b.w.): 100%
Reduction of the effect of HFD on serum TNF‐α level ([5]; average over doses (I‐ol), UDCA 40 mg/kg b.w.): 75%
Decrease in serum TNF‐α level compared to disease group [5, 8]: 56%
Decrease in serum leptin compared to disease group [5, 8]: 21%
Increase in serum adiponectin compared to disease group [5, 8]: 42%
Reduction of the effect of HFD on serum adiponectin ([5]; average over doses (I‐ol, I‐an), UDCA 40 mg/kg b.w. (elevated the concentration by)): 52%
Reduction of the effect of HFD on serum leptin ([5]; average over doses (I‐ol, I‐an), UDCA 40 mg/kg b.w. (reduced leptin concentration)): 72%
Decrease in serum bilirubin level compared to disease group ([6]; average over doses, UDCA 40 mg/kg b.w.): no therapeutic effect
Decrease in γ‐GT enzymatic activity compared to disease group [6, 10]: 30%
Reduction of the effect of HFD on γ‐GT activity [6, 10]: 73%
Decrease in ALT enzymatic activity compared to disease group ([6]; serum, highest concentrations (40 mg/kg b.w.)): 15%
Reduction of the effect of HFD on ALT activity ([6]; serum, highest concentrations (40 mg/kg b.w.), b87: dose not stated): 50%
Decrease in AP enzymatic activity compared to disease group [6, 11]: no therapeutic effect
Decrease in AST enzymatic activity compared to disease group [6, 11]: no therapeutic effect
